Assay results published in patent US7618996B2, “Diaryl ether derivatives and uses thereof” (Pfizer Inc., priority 2006, dated 2009).
Where a name gives a salt, the structure may show the parent alone.

How the values were obtained:
[1] = Pharmacokinetic experiment, IV in rats; assay type: in vivo, rat; details: male JVC/CAC rats, 1 mg/kg IV; for half-life / clearance / Vd: rat, plasma; for clearance: average of two rats; for Vd: read-out: volume of distribution
Experimental: A representative compound of the present invention (Example 1A) and a comparator compound (Example 2A) were individually dosed into two different male JVC/CAC rats at 1 mg/kg in a 10% ethanol and 90% (30% beta-cyclodextrin sulfobutylether) vehicle. Blood was subsequently collected at 0.083, 0.25, 0.5, 1, 2, 4, 6, 8 and 20 hours post IV administration. After spinning the blood samples down to get plasma, the plasma concentrations were determined by LC/MS/MS. The pharmacokinetic (PK) analysis was determined by inputting the resultant time concentration data into a Watson™ Laboratory Information Management System (LIMS).

kappa opioid receptor [2] = target: T1, kappa opioid receptor (Homo sapiens, UniProt P41145); assay: GTPγ[35S] binding assay at kappa opioid receptor (antagonist vs dynorphin-A); assay type: biochemical; set-up: expressed in transfected cells; details: average Ki; membranes, challenged with dynorphin-A (10 nM)
Experimental: (§1) GTPγ[^35S] Binding Assays at Opioid Receptors
(§2) Membranes were prepared from cells as described (Bass et al, 1996). GTPγ[^35S] binding assays were performed in a 96 well FlashPlate™ format in duplicate using 100 pM GTPγ[^35S] and 5 μg membrane per well in assay buffer composed of 50 mM Tris HCl, pH 7.4, 5 mM MgCl2, 1 mM EDTA, 100 mM NaCl, 30 μM GDP, 0.1% bovine serum albumin and the following protease inhibitors: 100 μg/ml bacitracin, 100 μg/ml benzamidine, 5 μg/ml aprotinin, 5 μg/ml leupeptin. The assay mix was then incubated at 30° C. with increasing concentrations of antagonist (10^−10 M to 10^−5 M) for 10 minutes and challenged with the agonists BW-373U86 (1 nM), dynorphin-A (10 nM), β-endorphin (1 μM) for opioid receptors delta, kappa, and mu, respectively. The assays were performed at 30° C. for one hour. The FlashPlates were then centrifuged at 2000×g for 10 minutes. Stimulation of GTPγ[^35S] binding was then quantified using a Wallac Microbeta and Ki calculations were done using Prism™ by Graphpad. […] Each of the compounds listed below were tested as their hydrochloride salts unless indicated otherwise. Those Example Numbers with an asterisk (*) were tested as their free base.

mu opioid receptor [3] = target: T2, mu opioid receptor (Homo sapiens, UniProt P35372); assay: GTPγ[35S] binding assay at mu opioid receptor (antagonist vs β-endorphin); assay type: biochemical; set-up: expressed in transfected cells; details: average Ki; membranes, challenged with β-endorphin (1 μM)
Experimental: as §1, §2

delta opioid receptor [4] = target: T3, delta opioid receptor (Homo sapiens, UniProt P41143); assay: GTPγ[35S] binding assay at delta opioid receptor (antagonist vs BW-373U86); assay type: biochemical; set-up: expressed in transfected cells; details: average Ki; membranes, challenged with BW-373U86 (1 nM)
Experimental: as §1, §2

[5] = literature (Shaw 1991, 1993; Levine 1991); cited from earlier work
delta opioid receptor [6] = target: T3, delta opioid receptor; details: compared with mu and kappa; literature; cited from earlier work
mu opioid receptor [7] = target: T2, mu opioid receptor; details: literature (Statnick 2003; Zimmerman 1993); cited from earlier work
kappa opioid receptor [8] = target: T1, kappa opioid receptor; details: literature (Statnick 2003; Zimmerman 1993); cited from earlier work

T1 sequence (P41145 whole entry): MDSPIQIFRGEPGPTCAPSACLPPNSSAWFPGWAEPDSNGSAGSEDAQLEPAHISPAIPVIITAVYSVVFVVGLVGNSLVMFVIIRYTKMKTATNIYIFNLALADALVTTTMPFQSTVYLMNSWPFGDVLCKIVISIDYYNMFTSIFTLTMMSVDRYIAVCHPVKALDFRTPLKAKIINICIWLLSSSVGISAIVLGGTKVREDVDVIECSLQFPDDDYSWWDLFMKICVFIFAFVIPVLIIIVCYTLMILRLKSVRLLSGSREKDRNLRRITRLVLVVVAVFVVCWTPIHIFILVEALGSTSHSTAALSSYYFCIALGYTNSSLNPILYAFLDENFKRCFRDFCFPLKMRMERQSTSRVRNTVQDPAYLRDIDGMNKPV
T3 sequence (P41143 whole entry): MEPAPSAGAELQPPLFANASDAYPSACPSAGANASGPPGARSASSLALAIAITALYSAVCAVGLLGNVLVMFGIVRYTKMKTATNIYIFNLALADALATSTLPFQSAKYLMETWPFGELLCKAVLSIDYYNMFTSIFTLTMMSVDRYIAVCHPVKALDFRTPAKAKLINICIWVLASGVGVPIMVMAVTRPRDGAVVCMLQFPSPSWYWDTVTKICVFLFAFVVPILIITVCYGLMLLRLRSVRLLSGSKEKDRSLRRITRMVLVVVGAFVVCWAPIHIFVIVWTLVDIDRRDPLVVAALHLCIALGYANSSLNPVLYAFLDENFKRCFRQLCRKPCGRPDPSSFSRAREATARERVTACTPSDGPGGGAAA
T2 sequence (P35372 whole entry): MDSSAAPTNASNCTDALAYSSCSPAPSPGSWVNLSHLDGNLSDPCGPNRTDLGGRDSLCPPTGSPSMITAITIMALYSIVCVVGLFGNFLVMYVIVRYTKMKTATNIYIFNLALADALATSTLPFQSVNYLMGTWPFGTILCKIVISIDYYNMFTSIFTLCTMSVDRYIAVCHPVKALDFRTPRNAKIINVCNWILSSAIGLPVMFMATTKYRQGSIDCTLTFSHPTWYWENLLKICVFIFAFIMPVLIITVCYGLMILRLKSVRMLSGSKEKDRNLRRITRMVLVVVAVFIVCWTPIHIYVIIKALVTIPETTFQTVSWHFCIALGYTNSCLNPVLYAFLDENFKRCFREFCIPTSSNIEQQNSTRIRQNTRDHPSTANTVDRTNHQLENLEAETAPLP

Structure (SMILES) | Ki (kappa opioid receptor [2]) [pM] | Ki (mu opioid receptor [3]) [pM] | Ki (delta opioid receptor [4]) [pM] | other results
CC(C)CCNCc1ccc(Oc2ccc(C(N)=O)c(O)c2)c(F)c1 [Example 1A, 4-(2-fluoro-4-{[(3-methylbutyl)amino]methyl}phenoxy)-2-hydroxybenzamide, hydrochloride salt] | 652 | 335 | 640 | half-life [1]: 2.9 h; clearance [1]: 18.6 mL/min/kg; Vd [1]: 2 L/kg
CC(C)CCNCc1ccc(Oc2cccc(O)c2)c(F)c1.Cl [Example 2A, 3-(2-fluoro-4-{[(3-methylbutyl)amino]-methyl}phenoxy)phenol, hydrochloride salt] | 47100 | 16700 | 25400 | clearance relative to hepatic blood flow [1]: approximately 5 times hepatic blood flow; half-life [1]: 0.7 h; clearance [1]: 361 mL/min/kg; Vd [1]: 10 L/kg
NC(=O)c1ccc(Oc2ccc(CNCCC3CC3)cc2F)cc1O [Example 3A, 4-(4-{[(2-cyclopropylethyl)amino]methyl}-2-fluorophenoxy)-2-hydroxybenzamide, hydrochloride salt] | 390 | 312 | 620 | 
NC(=O)c1ccc(Oc2ccc(CNC3Cc4ccccc4C3)cc2F)cc1O [Example 3B] | 34.8 | 4.12 | 41 | 
CC(C)OCCNCc1ccc(Oc2ccc(C(N)=O)c(O)c2)c(F)c1 [Example 3C] | 3780 | 1650 | 1680 | 
NC(=O)c1ccc(Oc2ccc(CNCCOc3ccccc3)cc2F)cc1O [Example 3D] | 5350 | 920 | 687 | 
NC(=O)c1ccc(Oc2ccc(CNCC3CCCO3)cc2F)cc1O (stereo not shown) [Example 3E] | 470 | 1170 | 3250 | 
NC(=O)c1ccc(Oc2ccc(CNC[C@@H]3CCCO3)cc2F)cc1O [Example 3F] | 235 | 855 | 2230 | 
NC(=O)c1ccc(Oc2ccc(CNC[C@H]3CCCO3)cc2F)cc1O [Example 3G] | 1090 | 3910 | 10300 | 
NC(=O)c1ccc(Oc2ccc(CNCC3CCOCC3)cc2F)cc1O [Example 3H] | 1560 | 4900 | 3020 | 
NC(=O)c1ccc(Oc2ccc(CNCC3(O)CCCCC3)cc2F)cc1O [Example 3I] | 215 | 158 | 3330 | 
CC[C@@H](NCc1ccc(Oc2ccc(C(N)=O)c(O)c2)c(F)c1)c1ccccn1 [Example 3J] | 13800 | 26200 | 16600 | 
CC(C)CCNCc1cc(F)c(Oc2ccc(C(N)=O)c(O)c2)c(F)c1 [Example 4A, 4-(2,6-difluoro-4-{[(3-methybutyl)amino]methyl}phenoxy)-2-hydroxybenzamide] | 164 | 94 | 465 | 
NC(=O)c1ccc(Oc2c(F)cc(CNC3CCCCC3)cc2F)cc1O [Example 4B] | 73.1 | 77.2 | 866 | 
NC(=O)c1ccc(Oc2c(F)cc(CNCCC3CC3)cc2F)cc1O [Example 4C] | 244 | 167 | 1100 | 
NC(=O)c1ccc(Oc2c(F)cc(CNC[C@@H]3CCCO3)cc2F)cc1O [Example 4D] | 184 | 346 | 4870 | 
NC(=O)c1ccc(Oc2c(F)cc(CNCCC3CCOCC3)cc2F)cc1O [Example 4E] | 419 | 96.3 | 352 | 
NC(=O)c1ccc(Oc2c(F)cc(CNC3Cc4ccccc4C3)cc2F)cc1O [Example 4F] | 84.8 |  | 54.3 | 
C[C@H]1CN(CC[C@H](O)C2CCCCC2)CC[C@@]1(C)c1cccc(O)c1 [LY255582] |  |  |  | anorectic effects [5]: robust anorectic effects
CC1CNCCC1(C)c1cccc(O)c1 (stereo not shown) [LY515300, 3,4-dimethyl-4-(3-hydroxyphenyl)piperidine] |  |  |  | affinity for the delta-opioid receptor (delta opioid receptor [6]): lower affinity; binding affinity for the mu-opioid receptor subtype (mu opioid receptor [7]): sub-nanomolar; binding affinity for the kappa-opioid receptor subtype (kappa opioid receptor [8]): sub-nanomolar
